Broadly, the IC50 is the concentration that inhibits the measured activity by half.

For one assay, the system named is KB. Put plainly: Cytotoxicity against human KB cells assessed as reduction in cell growth after 3 days by MTT assay. It counts as functional, cell-based. The conditions noted are these: 72 h. A general note: Tetrazolium assays rely on reduction of a dye to a coloured formazan, in cell work by metabolically active cells.
The test system of the next assay is HepG2. Put plainly: Cytotoxicity against human HepG2 cells assessed as reduction in cell growth after 3 days by MTT assay. Format: functional, cell-based. The conditions noted are these: HepG2, 72 h.

Regarding `CCOC(=O)/C(C)=C/[C@H](C(C)C)N(C)C(=O)[C@@H](NC(=O)[C@@H](NC)C(C)(C)c1ccc(Br)cc1)C(C)(C)C`, the results for the IC50 with KB and in the assay on HepG2 were 12 nM and 6 nM, respectively.

For `CCOC(=O)/C(C)=C/[C@H](C(C)C)N(C)C(=O)[C@@H](NC(=O)[C@H](NC)C(C)(C)c1ccc(Br)cc1)C(C)(C)C`, the IC50 is 172 nM in the assay with KB and 10 nM with HepG2.

On to `CCOC(=O)/C(C)=C/[C@H](C(C)C)N(C)C(=O)[C@@H](NC(=O)[C@@H](NC)C(C)(C)c1coc2ccccc12)C(C)(C)C`, for which the results for the IC50 in the assay with KB and in the assay on HepG2 were 13 nM and 11 nM, respectively.

With `CCOC(=O)/C(C)=C/[C@H](C(C)C)N(C)C(=O)[C@@H](NC(=O)[C@H](NC)C(C)(C)c1coc2ccccc12)C(C)(C)C`, the IC50 in the assay on KB was 760 nM; in the assay with HepG2 it was 730 nM.

On to `CCOC(=O)/C(C)=C/[C@H](C(C)C)N(C)C(=O)[C@@H](NC(=O)[C@@H](NC)C(C)(C)c1ccc2ccccc2c1)C(C)(C)C`, for which the IC50 in the assay on KB and in the assay on HepG2 was 13 nM throughout.

As for `CCOC(=O)/C(C)=C/[C@H](C(C)C)N(C)C(=O)[C@@H](NC(=O)[C@H](NC)C(C)(C)c1ccc2ccccc2c1)C(C)(C)C`, the IC50 with KB amounted to 181 nM; in the assay on HepG2 it was 144 nM.

On to `CN[C@H](C(=O)N[C@H](C(=O)N(C)[C@H](/C=C(\C)C(=O)O)C(C)C)C(C)(C)C)C(C)(C)c1ccc(Br)cc1`, for which the IC50 in the assay with KB came to 1.7 nM; with HepG2, 1.8 nM.

`CN[C@@H](C(=O)N[C@H](C(=O)N(C)[C@H](/C=C(\C)C(=O)O)C(C)C)C(C)(C)C)C(C)(C)c1ccc(Br)cc1`: the IC50 in the assay on KB was 11 nM; in the assay with HepG2, 13 nM.

Consider `CN[C@H](C(=O)N[C@H](C(=O)N(C)[C@H](/C=C(\C)C(=O)O)C(C)C)C(C)(C)C)C(C)(C)c1coc2ccccc12`, for which the IC50 was 1.7 nM in the assay on KB and 1.9 nM in the assay with HepG2.

Take `CN[C@@H](C(=O)N[C@H](C(=O)N(C)[C@H](/C=C(\C)C(=O)O)C(C)C)C(C)(C)C)C(C)(C)c1coc2ccccc12`: the IC50 in the assay with KB stood at 43 nM; in the assay with HepG2 it was 37 nM.

Take `CN[C@H](C(=O)N[C@H](C(=O)N(C)[C@H](/C=C(\C)C(=O)O)C(C)C)C(C)(C)C)C(C)(C)c1ccc2ccccc2c1`: the IC50 with KB and with HepG2 was 1.9 nM each time.

For `CN[C@@H](C(=O)N[C@H](C(=O)N(C)[C@H](/C=C(\C)C(=O)O)C(C)C)C(C)(C)C)C(C)(C)c1ccc2ccccc2c1`, the IC50 with KB worked out at 14 nM; with HepG2, 34 nM.

Values taken from ChEMBL document CHEMBL3351904, “Synthesis of new bioisosteric hemiasterlin analogues with extremely high cytotoxicity” (Bioorg Med Chem Lett, 2014).
